In patent publication US8778964B2, “Hydroxy-substituted imidazo[1,2-a]-pyridinecarboxamides and their use” (Bayer Pharma Aktiengesellschaft, priority 2012, dated 2014):
Structures can show the parent of a compound that is named as a salt.

test system: recombinant guanylate cyclase reporter cell line; test: Action on recombinant guanylate cyclase reporter cell line (MEC); format: cell-based; settings: in some cases mean values obtained from individual determinations
Outline: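 Cell-based reporter assay with recombinant guanylate cyclase expressed in a reporter cell line, per a published method. Activity reported as minimal effective concentration (MEC), in some cases as the mean of individual determinations.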

Going from Cc1nc2c(OCC3CCCCC3)cccn2c1C(=O)NC(CO)COC(C)(C)C (stereo not shown) [Example 94, N-(1-tert-butoxy-3-hydroxypropan-2-yl)-8-(cyclohexylmethoxy)-2-methylimidazo[1,2-a]-pyridine-3-carboxamide] to Cc1nc2c(OCC3CCCCC3)cccn2c1C(=O)N[C@H](CO)C(C)C [Example 93, 8-(cyclohexylmethoxy)-N-[(2S)-1-hydroxy-3-methylbutan-2-yl]-2-methylimidazo[1,2-a]pyridine-3-carboxamide], the minimal effective concentration falls from 3 µM to 1 µM (3-fold).

Compared with Cc1nc2c(OCC3CCCCC3)cccn2c1C(=O)NC(CO)(CO)CO [Example 77, 8-(cyclohexylmethoxy)-N-[1,3-dihydroxy-2-(hydroxymethyl)propan-2yl]-2-methylimidazo[1,2-a]pyridine-3-carboxamide formate], CCCC[C@H](CO)NC(=O)c1c(C)nc2c(OCCC(C)C)cccn12 [Example 159, N-[(2R)-1-Hydroxyhexan-2-yl]-2-methyl-8-(3-methylbutoxy)imidazo[1,2-a]pyridine-3-carboxamide] is 3.3-fold higher in minimal effective concentration: 0.3 µM for the first, 1 µM for the second.

First: CCCC[C@H](CO)NC(=O)c1c(C)nc2c(OCc3c(F)c(F)cc(F)c3F)cccn12 [Example 7, N-[(2R)-1-hydroxyhexan-2-yl]-2-methyl-8-[(2,3,5,6-tetrafluorobenzyl)oxy]imidazo[1,2-a]pyridine-3-carboxamide]
Second: Cc1nc2c(OCc3c(F)cccc3F)cccn2c1C(=O)N[C@@H](CO)CCCO [Example 130, 8-[(2,6-difluorobenzyl)oxy]-N-[(2R)-1,5-dihydroxypentan-2-yl]-2-methylimidazo[1,2-a]pyridine-3-carboxamide]
The minimal effective concentration of the first is 3.3-fold lower: 0.3 µM for the first, 1 µM for the second.

CCCOCC(CO)NC(=O)c1c(C)nc2c(OCc3c(F)cccc3F)cccn12 (racemic) [Example 162, rac-8-[(2,6-Difluorobenzyl)oxy]-N-(1-hydroxy-3-propoxypropan-2-yl)-2-methylimidazo[1,2-a]-pyridine-3-carboxamide] and COC(=O)[C@H](CO)NC(=O)c1c(C)nc2c(OCc3c(F)cccc3F)cccn12 [Example 164, Methyl N-({8-[(2,6-difluorobenzyl)oxy]-2-methylimidazo[1,2-a]pyridin-3-yl}carbonyl)-L-serinate] are within 1.5-fold of each other in minimal effective concentration: 0.3 µM for the first, 0.2 µM for the second.

Going from Cc1nc2c(OCc3c(F)cccc3F)cccn2c1C(=O)NC(CO)c1ccc(F)cc1 (racemic) [Example 103, rac-8-[(2,6-difluorobenzyl)oxy]-N-[1-(4-fluorophenyl)-2-hydroxyethyl]-2-methylimidazo-[1,2-a]pyridine-3-carboxamide trifluoroacetate] to Cc1nc2c(OCc3c(F)cccc3F)cccn2c1C(=O)NC[C@@H](O)c1ccccc1 [Example 32, 8-[(2,6-difluorobenzyl)oxy]-N-[(2S)-2-hydroxy-2-phenylethyl]-2-methylimidazo[1,2-a]pyridine-3-carboxamide], the minimal effective concentration rises from 0.1 µM to 1 µM (10-fold).

CCCC[C@H](CO)NC(=O)c1c(C)nc2c(OCc3c(Cl)cccc3Cl)cccn12 [Example 8, 8-[(2,6-dichlorobenzyl)oxy]-N-[(2R)-1-hydroxyhexan-2-yl]-2-methylimidazo[1,2-a]pyridine-3-carboxamide] and CCCC[C@H](CO)NC(=O)c1c(C2CC2)nc2c(OCc3c(F)cccc3F)cccn12 [Example 134, 2-cyclopropyl-8-[(2,6-difluorobenzyl)oxy]-N-[(2R)-1-hydroxyhexan-2-yl]imidazo[1,2-a]-pyridine-3-carboxamide] are the same in minimal effective concentration: 0.3 µM for the first, 0.3 µM for the second.

For Cc1nc2c(OCc3ccccc3F)cccn2c1C(=O)NC(CO)CO [Example 51, N-(1,3-dihydroxypropan-2-yl)-8-[(2-fluorobenzyl)oxy]-2-methylimidazo[1,2-a]pyridine-3-carboxamide], the minimal effective concentration was 5.5 µM.
